Test results: patent publication US9708286B2, “Ingenol-3-acylates III and ingenol-3-carbamates” (LEO Laboratories Limited, priority 2010, dated 2017)

How the values were obtained:
[1] = tested on: PMN's (polymorphonuclear leukocytes); assay: Neutrophil oxidative burst; format: cell-based; conditions: Leukocyte, 40 min, read-out: Neutrophil oxidative burst Rel EC50 range, PMN from buffy coats, 40 min at RT, hydroethidine fluorescence; normalized to 5×10^−7 M PEP0005
Description: PMN's (polymorphonuclear leukocytes) were isolated and purified from fresh buffy coats by sequential sedimentation, density centrifugation and lysis of contaminating erythrocytes. Buffy coats were incubated with 2% methocel for 30-45 min to differentially sediment red blood cells. The leukocyte-rich supernatant was transferred to lymphoprep tubes to remove mononuclear cells by density centrifugation (400×g, 30 min). The pellet was resuspended and any remaining erythrocytes lysed using 0.2% NaCl for 30 sec before restoring isotonicity by the addition of 1.2% NaCl. This step was repeated until the cell pellet appears relatively free of red blood cells. Cells were resuspended in DPBS (Dulbecco's Phosphate Buffered Saline) (w.o. Ca^2+, Mg^2+) and the concentration adjusted to 1.4×10^6 cells/ml in HBSS (Hanks Balanced Salt solution) (w Ca^2+, Mg^2±) containing 0.1% BSA (Bovine Serum Albumin) and 5 mM glucose just prior to assay initiation. Titrated reference and test compounds were pre-mixed with HE (Hydroethidine) (10 μM final assay concentration) before addition to 96-well plates containing 2.5×10^5 cells. Following 40 min incubation at RT, changes in the respiratory burst was estimated by measuring fluorescence at 579 nm (excitation: 485 nm) using an Envision plate reader.
Test compound titration curves were fitted to a four-parameter sigmoidal curve after normalizing the effect of the test compound to the effect of the positive control (5×10^−7 M PEP0005). Rel EC50 denotes the concentration of test compound producing an effect that is midway between the fitted top and bottom. Abs EC50 is the concentration of test compound that provokes a response corresponding to 50% of the maximal effect associated with the positive control (5×10^−7 M PEP0005).

HeLa cells = assay: Necrosis assay; format: cell-based; conditions: Homo sapiens, HeLa, 0.5 h, read-out: HeLa necrosis EC50 range
Description: HeLa cells (ATCC CCL-002) were grown in minimal essential medium (Invitrogen catalog no. 42360) containing 10% fetal bovine serum, 100 IU/ml penicillin and 100 μg/ml streptomycin. 4,000-6,000 cells were seeded into 96-well black ViewPlates-plates, clear bottom, (Perkin Elmer) in 100 μl medium and incubated overnight. Compounds were dissolved and pre-diluted in DMSO in 96-well polypropylene plates (Greiner) in a concentration range of 15 μM to 600 μM. At the time of the experiment cell plates were placed on heating blocks at 37° C., medium was removed and 40 μl fresh, pre-warmed medium was added per well. Cells were incubated for 15 min before addition of compounds. In parallel, 3 μl of compounds were diluted with 197 μl growth medium on a Tecan freedom-EVO pipetting station using 250 μl/s pipetting speed, in order to ensure effective mixing of the highly concentrated compound solutions with the aqueous phase. These pre-dilution plates were then equilibrated on heating blocks at 37° C. for 10 min. 80 μl pre-diluted compound were transferred manually to the corresponding wells containing HeLa cells yielding compound concentrations of 10 μM to 400 μM. Control conditions were 1% DMSO in growth medium (100% viability) and 400 μM ingenol mebutate in growth medium (0% viability). Plates were incubated on the heating blocks at 37° C. for 30 min. At the end of the incubation 10 μl PrestoBlue reagent (Invitrogen) were added to each well, plates were sealed with black seal, followed by incubation at 37° C. for 10 min with gentle shaking (150 rpm). Subsequently, plates were placed at room temperature for 20-30 min. Plates were read immediately after on an Envision Fluorescence reader (Perkin Elmer) with excitation at 535 nm and emission at 630 nm. Test compound titration curves were fitted to a four-parameter sigmoidal curve after normalizing the effect of the test compound to the effect of the positive control (4 10^−4 M PEP0005/ingenol mebutate). AbsEC50 denotes the concentration of test compound producing 50% effect.

SMILES	EC50 [1] [nM]	EC50 (HeLa cells) [nM]
CC1=C[C@]23C(=O)[C@@H](C=C(CO)[C@@H](O)[C@]2(O)[C@H]1OC(=O)C12CCC(C)(C(=O)O1)C2(C)C)[C@H]1[C@@H](C[C@H]3C)C1(C)C [Compound 503, Ingenol 3-(1S-camphanate)]	20 to 100	–
CC1=C[C@]23C(=O)[C@@H](C=C(CO)[C@@H](O)[C@]2(O)[C@H]1OC(=O)c1cc(-c2ccccc2)on1)[C@H]1[C@@H](C[C@H]3C)C1(C)C [Compound 511, Ingenol 3-(5-phenylisoxazole-3-carboxylate)]	20 to 100	< 150000
CC1=C[C@]23C(=O)[C@@H](C=C(CO)[C@@H](O)[C@]2(O)[C@H]1OC(=O)c1nccc2ccccc12)[C@H]1[C@@H](C[C@H]3C)C1(C)C [Compound 512, Ingenol 3-(isoquinoline-1-carboxylate)]	20 to 100	< 150000
CC1=C[C@]23C(=O)[C@@H](C=C(CO)[C@@H](O)[C@]2(O)[C@H]1OC(=O)c1ccnc2ccccc12)[C@H]1[C@@H](C[C@H]3C)C1(C)C [Compound 513, Ingenol 3-(quinoline-4-carboxylate)]	< 20	< 150000
CC1=C[C@]23C(=O)[C@@H](C=C(CO)[C@@H](O)[C@]2(O)[C@H]1OC(=O)c1cncn1-c1ccccc1)[C@H]1[C@@H](C[C@H]3C)C1(C)C [Compound 515, Ingenol 3-(3-phenylimidazole-4-carboxylate)]	< 20	< 150000
CC1=C[C@]23C(=O)[C@@H](C=C(CO)[C@@H](O)[C@]2(O)[C@H]1OC(=O)c1ncccc1Br)[C@H]1[C@@H](C[C@H]3C)C1(C)C [Compound 524, Ingenol 3-(3-bromopyridine-2-carboxylate)]	20 to 100	150000 to 350000
CC1=C[C@]23C(=O)[C@@H](C=C(CO)[C@@H](O)[C@]2(O)[C@H]1OC(=O)c1c(C)nc2ccccn12)[C@H]1[C@@H](C[C@H]3C)C1(C)C [Compound 535, Ingenol 3-(2-methylimidazo[1,2-a]pyridine-3-carboxylate)]	< 20	150000 to 350000
CCn1c(C)cc(C)c1C(=O)O[C@H]1C(C)=C[C@]23C(=O)[C@@H](C=C(CO)[C@@H](O)[C@]12O)[C@H]1[C@@H](C[C@H]3C)C1(C)C [Compound 543, Ingenol 3-(1-ethyl-3,5-dimethylpyrrole-2-carboxylate)]	< 20	< 150000
CC1=C[C@]23C(=O)[C@@H](C=C(CO)[C@@H](O)[C@]2(O)[C@H]1OC(=O)[C@@H]1CCCN1c1ccccc1)[C@H]1[C@@H](C[C@H]3C)C1(C)C [Compound 545, Ingenol 3-((2S)-1-phenylpyrrolidine-2-carboxylate)]	20 to 100	150000 to 350000
CC1=C[C@]23C(=O)[C@@H](C=C(CO)[C@@H](O)[C@]2(O)[C@H]1OC(=O)c1c(C)nn(CC2CCOCC2)c1C)[C@H]1[C@@H](C[C@H]3C)C1(C)C [Compound 561, Ingenol 3-(3,5-dimethyl-1-(tetrahydropyran-4-ylmethyl)pyrazole-4-carboxylate)]	20 to 100	150000 to 350000
CC1=C[C@]23C(=O)[C@@H](C=C(CO)[C@@H](O)[C@]2(O)[C@H]1OC(=O)c1sc(=O)[nH]c1C)[C@H]1[C@@H](C[C@H]3C)C1(C)C [Compound 562, Ingenol 3-(4-methyl-2-oxo-3H-thiazole-5-carboxylate)]	20 to 100	> 350000
CCNC(=O)O[C@H]1C(C)=C[C@]23C(=O)[C@@H](C=C(CO)[C@@H](O)[C@]12O)[C@H]1[C@@H](C[C@H]3C)C1(C)C [Compound 701, Ingenol 3-(N-ethyl-carbamate)]	20 to 100	–
CC1=C[C@]23C(=O)[C@@H](C=C(CO)[C@@H](O)[C@]2(O)[C@H]1OC(=O)N(C)c1ccc(F)cc1)[C@H]1[C@@H](C[C@H]3C)C1(C)C [Compound 730, Ingenol 3-(N-(4-fluoro-phenyl)-N-methyl-carbamate)]	–	150000 to 350000
